Assay results taken from patent EP4600243A2, “NOVEL BICYCLIC HETEROCYCLYL COMPOUNDS AND USE THEREOF” (Jeil Pharmaceutical Co., Ltd., priority 2022, dated 2024).

Target: T1, protein-protein interaction between SOS1 and KRAS G12C (Homo sapiens, UniProt Q07889)
T1 construct: purchased Cisbio 64KRASG12PEG
T1 sequence (Q07889 1-1333): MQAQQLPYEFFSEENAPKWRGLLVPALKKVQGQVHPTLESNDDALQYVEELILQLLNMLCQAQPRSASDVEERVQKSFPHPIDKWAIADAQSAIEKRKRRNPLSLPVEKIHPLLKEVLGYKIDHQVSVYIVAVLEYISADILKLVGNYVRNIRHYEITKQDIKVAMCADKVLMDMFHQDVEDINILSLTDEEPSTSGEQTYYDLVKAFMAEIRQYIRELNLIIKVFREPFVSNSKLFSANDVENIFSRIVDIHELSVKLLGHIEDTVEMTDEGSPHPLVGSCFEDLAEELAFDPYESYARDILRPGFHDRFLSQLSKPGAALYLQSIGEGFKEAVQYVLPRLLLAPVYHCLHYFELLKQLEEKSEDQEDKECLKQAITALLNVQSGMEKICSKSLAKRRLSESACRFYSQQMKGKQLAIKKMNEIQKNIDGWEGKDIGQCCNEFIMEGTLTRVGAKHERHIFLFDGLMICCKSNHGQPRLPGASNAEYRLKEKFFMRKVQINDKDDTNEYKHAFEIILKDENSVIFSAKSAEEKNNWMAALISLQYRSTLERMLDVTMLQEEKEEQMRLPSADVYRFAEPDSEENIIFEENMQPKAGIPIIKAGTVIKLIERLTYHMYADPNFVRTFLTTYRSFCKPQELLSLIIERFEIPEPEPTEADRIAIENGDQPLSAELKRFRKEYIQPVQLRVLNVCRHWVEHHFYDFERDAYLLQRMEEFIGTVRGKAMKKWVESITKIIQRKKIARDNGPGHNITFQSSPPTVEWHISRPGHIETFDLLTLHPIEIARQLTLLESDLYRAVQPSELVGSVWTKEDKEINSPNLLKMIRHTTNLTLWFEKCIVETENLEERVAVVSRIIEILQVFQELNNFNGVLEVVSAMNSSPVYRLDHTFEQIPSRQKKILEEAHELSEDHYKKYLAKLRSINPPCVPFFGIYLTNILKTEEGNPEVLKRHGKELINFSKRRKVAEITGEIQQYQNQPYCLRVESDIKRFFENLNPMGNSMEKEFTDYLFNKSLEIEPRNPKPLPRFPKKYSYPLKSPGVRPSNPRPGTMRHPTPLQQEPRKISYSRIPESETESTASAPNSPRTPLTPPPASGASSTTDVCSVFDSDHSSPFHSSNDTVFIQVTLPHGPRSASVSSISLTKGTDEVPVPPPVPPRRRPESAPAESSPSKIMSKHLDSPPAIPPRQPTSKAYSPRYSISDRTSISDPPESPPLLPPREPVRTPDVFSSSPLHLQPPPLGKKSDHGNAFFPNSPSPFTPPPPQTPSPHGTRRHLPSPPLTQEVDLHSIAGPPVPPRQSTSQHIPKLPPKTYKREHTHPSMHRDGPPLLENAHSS
Assay: KRAS::SOS1 HTRF binding analysis (KRAS G12C/SOS1 binding kit)
Conditions: compound at 0.1 uM
Protocol: 1-1. KRAS::SOS1 HTRF binding analysis
An SOS1 inhibitory ability of the example compounds of the present invention was confirmed by identifying the effect of inhibiting a protein-protein interaction between SOS1 and KRAS G12C of the compounds according to examples of the present invention.
Specifically, a KRAS G12C/SOS1 binding kit (64KRASG12PEG, Cisbio, France) was purchased and used. 2 µℓ of Tag1-KRAS G12C and 2 µℓ of GTP were premixed and dispensed 4 µl each into a 384 well plate (6007290, PerkinElmer, USA). 2 µℓ of the compound and 4 µℓ of Tag2-SOS1 were placed and then 10 µℓ of premixed Anti-Tag1 XL665 antibody and Anti-Tag2 Tb cryptate antibody was dispensed to each well. The plates were sealed and allowed to react at room temperature for one hour and 40 minutes, and then 665 nm wavelength and 620 nm wavelength were measured using a HTRF® compatible reader (Synergy H4, BioTeK, USA), and the ratio of receptor and donor emission signals for each well was calculated as 665 nm/620 nm×10^4.
(+++: more than 70 to 100% inhibition, ++: more than 40 to 70% inhibition, +: 0 to 40% inhibition) [Table 4]

Compound | inhibition at 0.1 µM [%]
C[C@@H](Nc1cnnc2ccc(N3C[C@H]4C[C@@H]3CO4)cc12)c1cccc(C(F)F)c1F [Example 13, 6-((1R,4R)-2-oxa-5-azabicyclo[2.2.1]heptan-5-yl)-N-((R)-1-(3-(difluoromethyl)-2-fluorophenyl)ethyl)cinnolin-4-amine] | 40 to 70
COC1(C)CN(c2ccc3nncc(N[C@H](C)c4cccc(C(F)F)c4F)c3c2)C1 [Example 33, (R)-N-(1-(3-(difluoromethyl)-2-fluorophenyl)ethyl)-6-(3-methoxy-3-methylazetidin-1-yl)cinnolin-4-amine] | 0 to 40
C[C@@H]1CN(c2ccc3nncc(N[C@H](C)c4cccc(C(F)F)c4F)c3c2)CCO1 [Example 57, N-((R)-1-(3-(difluoromethyl)-2-fluorophenyl)ethyl)-6-((R)-2-methylmorpholino)cinnolin-4-amine] | 0 to 40
CO[C@@H]1CCCN(c2ccc3nncc(N[C@H](C)c4cccc(C(F)F)c4F)c3c2)C1 [Example 23, N-((R)-1-(3-(difluoromethyl)-2-fluorophenyl)ethyl)-6-((R)-3-methoxypiperidin-1-yl)cinnolin-4-amine] | 0 to 40
C[C@@H](Nc1cnnc2ccc(N3CC4(COC4)C3)cc12)c1cccc(C(F)F)c1F [Example 11, (R)-N-(1-(3-(difluoromethyl)-2-fluorophenyl)ethyl)-6-(2-oxa-6-azaspiro[3.3]heptan-6-yl)cinnolin-4-amine] | 0 to 40
C[C@@H](Nc1cnnc2ccc(N3CCC(C)(O)CC3)cc12)c1cccc(C(F)F)c1 [Example 43, (R)-1-(4-((1-(3-(difluoromethyl)phenyl)ethyl)amino)cinnolin-6-yl)-4-methylpiperidin-4-ol] | 0 to 40
C[C@H]1CN(c2ccc3nncc(N[C@H](C)c4cccc(C(F)F)c4F)c3c2)CCO1 [Example 59, N-((R)-1-(3-(difluoromethyl)-2-fluorophenyl)ethyl)-6-((S)-2-methylmorpholino)cinnolin-4-amine] | 0 to 40
CC(=O)N1CC=C(c2ccc3nncc(N[C@H](C)c4cccc(C(F)F)c4F)c3c2)CC1 [Example 1, (R)-1-(4-(4-(1-(3-(difluoromethyl)-2-fluorophenyl)ethylamino)cinnolin-6-yl)-5,6-dihydropyridin-1(2H)-yl)ethanone] | 0 to 40
COC1CC2(C1)CN(c1ccc3nncc(N[C@H](C)c4cccc(C(F)F)c4F)c3c1)C2 [Example 34, (R)-N-(1-(3-(difluoromethyl)-2-fluorophenyl)ethyl)-6-(6-methoxy-2-azaspiro[3.3]heptan-2-yl)cinnolin-4-amine] | 0 to 40
C[C@@H](Nc1cnnc2ccc(N3CC4CCC(C3)O4)cc12)c1cccc(C(F)F)c1F [Example 16, 6-(8-oxa-3-azabicyclo[3.2.1]octan-3-yl)-N-((R)-1-(3-(difluoromethyl)-2-fluorophenyl)ethyl)cinnolin-4-amine] | 0 to 40
COC1CN(c2ccc3nncc(N[C@H](C)c4cccc(C(F)F)c4F)c3c2)C1 [Example 31, (R)-N-(1-(3-(difluoromethyl)-2-fluorophenyl)ethyl)-6-(3-methoxyazetidin-1-yl)cinnolin-4-amine] | 0 to 40
C[C@@H](Nc1cnnc2ccc(N3CCN(C(=O)C4CC4)CC3)cc12)c1cccc(C(F)F)c1F [Example 62, (R)-cyclopropyl(4-(4-(1-(3-(difluoromethyl)-2-fluorophenyl)ethylamino)cinnolin-6-yl)piperazin-1-yl)methanone] | 40 to 70
C[C@@H](Nc1cnnc2ccc(N3CC4CC(C3)O4)cc12)c1cccc(F)c1F [Example 56, 6-(6-oxa-3-azabicyclo[3.1.1]heptan-3-yl)-N-((R)-1-(2,3-difluorophenyl)ethyl)cinnolin-4-amine] | 0 to 40
C[C@@H](Nc1cnnc2ccc(C3=CCOCC3)cc12)c1cccc(C(F)F)c1F [Example 4, (R)-N-(1-(3-(difluoromethyl)-2-fluorophenyl)ethyl)-6-(3,6-dihydro-2H-pyran-4-yl)cinnolin-4-amine] | 0 to 40
C[C@@H](Nc1cnnc2ccc(N3CCN(C4COC4)CC3)cc12)c1cccc(C(F)F)c1F [Example 8, (R)-N-(1-(3-(difluoromethyl)-2-fluorophenyl)ethyl)-6-(4-(oxetan-3-yl)piperazin-1-yl)cinnolin-4-amine] | 0 to 40
C[C@@H](Nc1cnnc2ccc(N3C[C@H]4COC[C@H]4C3)cc12)c1cccc(C(F)F)c1F [Example 29, N-((R)-1-(3-(difluoromethyl)-2-fluorophenyl)ethyl)-6-((3 aR,6aS)-tetrahydro-1H-furo[3,4-c]pyrrol-5(3H)-yl)cinnolin-4-amine] | 40 to 70
C[C@@H](Nc1cnnc2ccc(N3CCOCC3)cc12)c1cccc(C(F)F)c1F [Example 10, (R)-N-(1-(3-(difluoromethyl)-2-fluorophenyl)ethyl)-6-morpholinocinnolin-4-amine] | 0 to 40
C[C@@H](Nc1cnnc2ccc(N3CC[C@@H](F)C3)cc12)c1cccc(C(F)F)c1F [Example 25, N-((R)-1-(3-(difluoromethyl)-2-fluorophenyl)ethyl)-6-((R)-3-fluoropyrrolidin-1-yl)cinnolin-4-amine] | 0 to 40
Cc1c(C#N)cccc1[C@@H](C)Nc1cnnc2ccc(C3=CCN(C)CC3)cc12 [Example 52, (R)-2-methyl-3-(1-(6-(1-methyl-1,2,3,6-tetrahydropyridin-4-yl)cinnolin-4-ylamino)ethyl)benzonitrile] | 0 to 40
C[C@@H](Nc1cnnc2ccc(N3CCC[C@@H](O)C3)cc12)c1cccc(C(F)F)c1F [Example 20, (R)-1-(4-(((R)-1-(3-(difluoromethyl)-2-fluorophenyl)ethyl)amino)cinnolin-6-yl)piperidin-3-ol] | 0 to 40
C[C@@H](Nc1cnnc2ccc(N3CC4CC(C3)O4)cc12)c1cc(O)cc(C(F)F)c1 [Example 55, 3-((1R)-1-((6-(6-oxa-3-azabicyclo[3.1.1]heptan-3-yl)cinnolin-4-yl)amino)ethyl)-5-(difluoromethyl)phenol] | 0 to 40
C[C@@H](Nc1cnnc2ccc(C3=CCN(C)CC3)cc12)c1cccc(C#N)c1 [Example 53, (R)-3-(1-(6-(1-methyl-1,2,3,6-tetrahydropyridin-4-yl)cinnolin-4-ylamino)ethyl)benzonitrile] | 0 to 40
C[C@@H](Nc1cnnc2ccc(N[C@@H]3CCOC3)cc12)c1cccc(C(F)F)c1F [Example 35, N4-((R)-1-(3-(difluoromethyl)-2-fluorophenyl)ethyl)-N6-((R)-tetrahydrofuran-3-yl)cinnolin-4,6-diamine] | 0 to 40
C[C@@H](Nc1cnnc2ccc(C3=CCN(C)CC3)cc12)c1cccc(C(F)F)c1F [Example 3, (R)-N-(1-(3-(difluoromethyl)-2-fluorophenyl)ethyl)-6-(1-methyl-1,2,3,6-tetrahydropyridin-4-yl)cinnolin-4-amine] | 70 to 100
C[C@@H](Nc1cnnc2ccc(N3CCN4CCOC[C@@H]4C3)cc12)c1cccc(C(F)F)c1F [Example 9, N-((R)-1-(3-(difluoromethyl)-2-fluorophenyl)ethyl)-6-((S)-hexahydropyrazino[2,1-c][1,4]oxazin-8(1H)-yl)cinnolin-4-amine] | 40 to 70
